Values quoted from earlier work in patent US20060110454A1 (priority 2004, published 2006).
Where a name gives a salt, the structure may show the parent alone.

## CCCN[C@H]1CCc2nc(N)sc2C1 [Pramipexole dihydrochloride, (S)-2-amino-4,5,6,7-tetrahydro-6-(propylamino)benzothiazole dihydrochloride monohydrate]
ethanol
  soluble in ethanol: about 0.5%
methanol
  soluble in methanol: about 8%
water
  soluble in water: more than 20%
